Read-outs that look alike come from different tables or passages of the source.
Columns and labels:
[1] = target: T1, 5-HT1A receptors (Rattus norvegicus, UniProt P19327); design: method as in earlier work; conditions: rat hippocampal homogenates; read-out: Ki (in vitro estimate); cited from earlier work
T1 sequence (P19327 1-422): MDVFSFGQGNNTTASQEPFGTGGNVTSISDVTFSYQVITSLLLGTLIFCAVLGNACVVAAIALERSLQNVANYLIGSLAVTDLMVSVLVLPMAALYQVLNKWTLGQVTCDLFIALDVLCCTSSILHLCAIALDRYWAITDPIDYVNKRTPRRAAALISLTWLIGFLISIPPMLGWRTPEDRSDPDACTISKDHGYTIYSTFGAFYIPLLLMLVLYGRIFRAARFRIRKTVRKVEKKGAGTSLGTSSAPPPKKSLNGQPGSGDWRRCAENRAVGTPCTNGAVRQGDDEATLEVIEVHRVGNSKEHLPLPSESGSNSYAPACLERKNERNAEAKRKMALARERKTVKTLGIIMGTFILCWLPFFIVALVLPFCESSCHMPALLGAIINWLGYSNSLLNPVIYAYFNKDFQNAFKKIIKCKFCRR

[2] = target: T1, 5-HT1A receptors; assay: In vitro ARG, inhibition of [11C]WAY-100635 binding in rat brain sections; design: Twenty-micrometer-thick frozen brain sections were preincubated; from tissue; host or cells: rat brain (hippocampus and raphe nucleus): frozen sections or living animals; conditions: for Ki: 0.9 nM [11C]WAY-100635
Procedure: Rats were sacrificed by decapitation. Twenty-micrometer-thick frozen brain sections were preincubated for 30 min in 50 mM Tris-HCl (pH 7.4) containing 1 mM MnCl2. […] Subsequently, the sections were rinsed twice with ice-cold Tris-HCl buffer for 5 min and then desalted with ice-cold distilled water for 10 sec. These samples were warmly blow-dried and placed in contact with an imaging plate (Fuji Film, Tokyo, Japan) for 60 min. Signals on the imaging plate were detected by BAS5000 system (Fuji Film).

[3] = target: T1, 5-HT1A receptors; assay: [18F]MPPF PET, BPND and 5-HT1A receptor occupancy; type: in vivo; design: Rats were sacrificed by decapitation; Twenty-micrometer-thick frozen brain sections were preincubated; from tissue; host or cells: rat brain (hippocampus and raphe nucleus): frozen sections or living animals; conditions: mean ± S.E.; for receptor occupancy at 30 mg/kg: rat
[4] = target: T1, 5-HT1A receptors; assay: Autoradiographic [35S]GTPγS binding in rat brain sections; type: biochemical; design: Twenty-micrometer-thick frozen brain sections were preincubated; from tissue; host or cells: rat brain (hippocampus and raphe nucleus): frozen sections or living animals; conditions: raphe nucleus; 10 µM; p<0.01; increment smaller than that by 8-OH-DPAT
Procedure: Autoradiographic procedures were performed as described previously, with some modifications. The sections were preincubated for 15 min in 50 mM 4-(2-hydroxyethyl)-1-piperazineethanesulfonic acid (HEPES; pH 7.4) containing 10 mM NaCl, 3 mM MgCl2 and 0.2 mM ethylene glycol tetraacetic acid. A second preincubation using the same buffer containing 2 mM GDP was performed for 15 min. The sections were subsequently incubated in the same buffer containing 2 mM GDP, 0.2 mM dithiothreitol and 0.04 nM [^35S]GTPγS for 120 min. Basal [^35S]GTPγS binding was defined in the absence of test drugs. […] Nonspecific binding was estimated using 10 µM nonradioactive GTPγS. The incubation was terminated by ice-cold 50 mM HEPES (pH 7.0). The sections were desalted with ice-cold distilled water, dried, and placed in contact with an imaging plate for 2 days. Signal detection and image analysis were performed as described above.

[5] = target: T1, 5-HT1A receptors; assay: [11C]WAY-100635-PET of rats treated with 5,7-DHT, a toxicant for 5-HT neurons; conditions: 30 mg/kg oral
[6] = target: T1, 5-HT1A receptors; assay: Ex vivo ARG, 5-HT1A receptor occupancy after drug administration; type: in vivo; design: Twenty-micrometer-thick frozen brain sections were preincubated; from tissue; host or cells: rat brain (hippocampus and raphe nucleus): frozen sections or living animals; conditions: for ED50: rat, po, ex vivo ARG, read-out: ED50 (5-HT1A receptor occupancy)
Procedure: Animals were then killed by decapitation 5 h and 30 min after their administration, respectively. Autoradiographic analysis was performed using procedures similar to in vitro ARG except for incubation temperature (37°C) and times for preincubation (30 sec), incubation (5 min) and rinsing (1 min). […] The doses of these drugs at half-maximal effect (ED50) were determined according to the following relationship: [drawing 2] where D is the dose of the drug.

[7] = Brain-to-plasma ratio of Wf-516; type: in vivo; conditions: at the time of reaching maximal plasma concentration, unpublished data
[8] = system: 5-HTTs; design: method as in PMID 19236731; conditions: cited from earlier work

Q: What does the source list for Cc1nnc(-c2cc3c(OC[C@@H](O)CN4CCC(c5ccc(Cl)c(Cl)c5)CC4)cccc3o2)o1.Cl [Wf-516, (2S)-1-[4-(3,4-dichlorophenyl)piperidin-1-yl]-3-[2-(5-methyl-1,3,4-oxadiazol-2-yl)benzo[b]furan-4-yloxy]propan-2-ol monohydrochloride]?
A: Ki [1]: 7.4 nM; Blockage of 5-HT1A receptors by excess amounts of drug ([2]; hippocampus and raphe nucleus, up to 1000 nM): near-complete blockage; Ki ([2]; hippocampus): 8.1 nM; Ki ([2]; raphe nucleus): 7.9 nM; BPND Hippocampus ([3]; 30 mg/kg): 1.100±0.015; BPND Raphe ([3]; 30 mg/kg): 0.227±0.027; receptor occupancy at 30 mg/kg ([3]; read-out: Occupancy (%) Hippocampus): 23.3 ± 1.5%; receptor occupancy at 30 mg/kg ([3]; read-out: Occupancy (%) Raphe): 45.7 ± 6.5%; [35S]GTPγS binding compared with 1 µM WAY-100635 [4]: significantly increased; Change of BPND in 5,7-DHT-treated rats ([5]; hippocampus, compared with baseline): significant decrease of BPND; Change of BPND in 5,7-DHT-treated rats ([5]; raphe nucleus): no additional reduction of BPND; 5-HT1A receptor binding (occupancy), dose-dependent up to ([6]; oral, 5 h after administration, irrespective of region): approximately 80%; ED50 ([6]; hippocampus): 5.3 mg/kg; ED50 ([6]; raphe nucleus): 4.2 mg/kg; Kp [7]: ~2; ED50 for blockade of 5-HTTs ([8]; previous PET study): 3 mg/kg; Occupancy of 5-HTT among regions ([8]; previous observation): homogenous among regions

From article PMC3413639 (PLoS ONE, 2012)
